Experimental findings from ChEMBL document CHEMBL1136113, “Synthesis and inhibitory activity of ubiquinone-acetogenin hybrid inhibitor with bovine mitochondrial complex I” (Bioorg Med Chem Lett, 2003) are described below.

Molecules are shown by their SMILES.

The target in the assay is Mitochondrial complex I; NADH oxidoreductase (Bos taurus, UniProt P25708+P52505). The experiment in a line: Inhibition of complex I activity was determined by NADH oxidase assay using bovine heart submitochondrial particles. In kind it is protein-complex assay.
Sequence of Mitochondrial complex I; NADH oxidoreductase (P25708 21-464 limits assumed, other chains not shown): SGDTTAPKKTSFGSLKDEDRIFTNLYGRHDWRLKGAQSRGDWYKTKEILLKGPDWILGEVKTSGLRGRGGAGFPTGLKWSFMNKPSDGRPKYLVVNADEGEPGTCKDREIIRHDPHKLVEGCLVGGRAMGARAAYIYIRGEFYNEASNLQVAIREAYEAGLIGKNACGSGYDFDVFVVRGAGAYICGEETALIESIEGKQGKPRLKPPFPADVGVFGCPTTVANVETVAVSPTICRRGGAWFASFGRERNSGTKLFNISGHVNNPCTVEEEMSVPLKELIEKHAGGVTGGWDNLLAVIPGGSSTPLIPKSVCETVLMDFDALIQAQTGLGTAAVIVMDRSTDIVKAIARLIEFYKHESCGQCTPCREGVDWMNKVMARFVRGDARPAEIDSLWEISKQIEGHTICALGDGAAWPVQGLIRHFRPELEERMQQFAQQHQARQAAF

On to `CCCCCCCCCC[C@@H](O)[C@@H]1CC[C@@H]([C@@H]2CC[C@@H]([C@H](O)CCCCCCCCCC(O)CC3=CC(C)OC3=O)O2)O1` (stereo not given in full) [BULLATACIN], for which the concentration for half-maximal inhibition (IC50) – broadly, the concentration at which inhibition is half-maximal – turned out to be 0.9 nM.
The figure for `CCCCCCCCCC[C@@H](O)[C@H]1CC[C@H]([C@H]2CC[C@H]([C@H](O)CCCCCCCCCCCCC3=C(C)C(=O)C(OC)=C(OC)C3=O)O2)O1` is 1.2 nM; for `CCCCC[C@@H](O)[C@H]1CC[C@H]([C@H]2CC[C@H]([C@H](O)CCCCC)O2)O1` it is 4500 nM.
The figure for `CCCCCCCCCC[C@@H](O)[C@H]1CC[C@H]([C@H]2CC[C@H]([C@H](O)CCCCCCCCCCCCc3c(C)c(OC)c(OC)c(OC)c3OC)O2)O1` is 280 nM; for `CCCCCCCCCC[C@@H](O)[C@H]1CC[C@H]([C@H]2CC[C@H]([C@H](O)CCCCCCCCCCCCC3=C[C@H](C)OC3=O)O2)O1` [ISODESAACETYLUVARICIN] it is 0.9 nM.
